{"source": "the supplement of paper PMC10307832", "experiment_in_all_cases": "relative viability (nuclei count vs DMSO), 5 days (fraction); higher = more cells survive", "key": {"Vismodegib + Linsitinib": {"compound": "CS(=O)(=O)c1ccc(C(=O)Nc2ccc(Cl)c(-c3ccccn3)c2)c(Cl)c1 [Vismodegib] + C[C@]1(O)C[C@@H](c2nc(-c3ccc4ccc(-c5ccccc5)nc4c3)c3c(N)nccn32)C1 [Linsitinib] (partner 1 µM)", "outline": "(§1)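 Nuclei were stained with Hoechst during a one-step fixation (final 0.05% Triton X-100, 1% formaldehyde, 1 ug/ml Hoechst) carried out 5 days after dosing, then counted on 4× images. The cells, lung cancer lines in 1536-well plates, had been dosed by pin tool the day after seeding with one drug alone or a fixed anchor-drug dose plus five library-drug doses (not always all listed) in √10 steps. Relative viability is the nuclei count in treated wells divided by that in vehicle wells, and each value is the median of duplicate plates.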"}, "Vismodegib + Bortezomib": {"compound": "CS(=O)(=O)c1ccc(C(=O)Nc2ccc(Cl)c(-c3ccccn3)c2)c(Cl)c1 [Vismodegib] + CC(C)C[C@H](NC(=O)[C@H](Cc1ccccc1)NC(=O)c1cnccn1)B(O)O [Bortezomib] (partner 0.002 µM)", "outline": "as §1"}, "VE-821 + Lapatinib": {"compound": "CS(=O)(=O)c1ccc(-c2cnc(N)c(C(=O)Nc3ccccc3)n2)cc1 [VE-821] + CS(=O)(=O)CCNCc1ccc(-c2ccc3ncnc(Nc4ccc(OCc5cccc(F)c5)c(Cl)c4)c3c2)o1 [Lapatinib] (partner 2 µM)", "outline": "as §1"}, "VE-821 + Navitoclax": {"compound": "CS(=O)(=O)c1ccc(-c2cnc(N)c(C(=O)Nc3ccccc3)n2)cc1 [VE-821] + CC1(C)CCC(c2ccc(Cl)cc2)=C(CN2CCN(c3ccc(C(=O)NS(=O)(=O)c4ccc(N[C@H](CCN5CCOCC5)CSc5ccccc5)c(S(=O)(=O)C(F)(F)F)c4)cc3)CC2)C1 [Navitoclax] (partner 0.5 µM)", "outline": "as §1"}}, "data": [{"cell line": "NCI-H1915", "values": [{"measurement": "relative viability", "setting": "Vismodegib + Linsitinib; first compound 0.08 µM", "result": 1.11}, {"measurement": "relative viability", "setting": "Vismodegib + Linsitinib; first compound 0.253 µM", "result": 1.15}, {"measurement": "relative viability", "setting": "Vismodegib + Linsitinib; first compound 0.8 µM", "result": 1.06}, {"measurement": "relative viability", "setting": "Vismodegib + Linsitinib; first compound 2.53 µM", "result": 1.1}, {"measurement": "relative viability", "setting": "Vismodegib + Linsitinib; first compound 8 µM", "result": 1.1}, {"measurement": "relative viability", "setting": "Vismodegib + Bortezomib; first compound 0.08 µM", "result": 1.05}, {"measurement": "relative viability", "setting": "Vismodegib + Bortezomib; first compound 0.253 µM", "result": 0.976}, {"measurement": "relative viability", "setting": "Vismodegib + Bortezomib; first compound 0.8 µM", "result": 0.985}, {"measurement": "relative viability", "setting": "Vismodegib + Bortezomib; first compound 2.53 µM", "result": 0.905}, {"measurement": "relative viability", "setting": "Vismodegib + Bortezomib; first compound 8 µM", "result": 0.953}, {"measurement": "relative viability", "setting": "VE-821 + Lapatinib; first compound 0.08 µM", "result": 1}, {"measurement": "relative viability", "setting": "VE-821 + Lapatinib; first compound 0.253 µM", "result": 0.999}, {"measurement": "relative viability", "setting": "VE-821 + Lapatinib; first compound 0.8 µM", "result": 0.994}, {"measurement": "relative viability", "setting": "VE-821 + Lapatinib; first compound 2.53 µM", "result": 1.04}, {"measurement": "relative viability", "setting": "VE-821 + Lapatinib; first compound 8 µM", "result": 0.88}, {"measurement": "relative viability", "setting": "VE-821 + Navitoclax; first compound 0.08 µM", "result": 0.8}, {"measurement": "relative viability", "setting": "VE-821 + Navitoclax; first compound 0.253 µM", "result": 0.81}, {"measurement": "relative viability", "setting": "VE-821 + Navitoclax; first compound 0.8 µM", "result": 0.826}, {"measurement": "relative viability", "setting": "VE-821 + Navitoclax; first compound 2.53 µM", "result": 0.79}, {"measurement": "relative viability", "setting": "VE-821 + Navitoclax; first compound 8 µM", "result": 0.678}]}, {"cell line": "SK-MES-1", "values": [{"measurement": "relative viability", "setting": "Vismodegib + Linsitinib; first compound 0.08 µM", "result": 1.04}, {"measurement": "relative viability", "setting": "Vismodegib + Linsitinib; first compound 0.253 µM", "result": 1.07}, {"measurement": "relative viability", "setting": "Vismodegib + Linsitinib; first compound 0.8 µM", "result": 1.08}, {"measurement": "relative viability", "setting": "Vismodegib + Linsitinib; first compound 2.53 µM", "result": 0.973}, {"measurement": "relative viability", "setting": "Vismodegib + Linsitinib; first compound 8 µM", "result": 1.07}, {"measurement": "relative viability", "setting": "VE-821 + Lapatinib; first compound 0.08 µM", "result": 0.483}, {"measurement": "relative viability", "setting": "VE-821 + Lapatinib; first compound 0.253 µM", "result": 0.467}, {"measurement": "relative viability", "setting": "VE-821 + Lapatinib; first compound 0.8 µM", "result": 0.437}, {"measurement": "relative viability", "setting": "VE-821 + Lapatinib; first compound 2.53 µM", "result": 0.446}, {"measurement": "relative viability", "setting": "VE-821 + Lapatinib; first compound 8 µM", "result": 0.397}, {"measurement": "relative viability", "setting": "VE-821 + Navitoclax; first compound 0.08 µM", "result": 1.3}, {"measurement": "relative viability", "setting": "VE-821 + Navitoclax; first compound 0.253 µM", "result": 1.23}, {"measurement": "relative viability", "setting": "VE-821 + Navitoclax; first compound 0.8 µM", "result": 1.24}, {"measurement": "relative viability", "setting": "VE-821 + Navitoclax; first compound 2.53 µM", "result": 1.21}, {"measurement": "relative viability", "setting": "VE-821 + Navitoclax; first compound 8 µM", "result": 1.26}]}, {"cell line": "NCI-H1299", "values": [{"measurement": "relative viability", "setting": "Vismodegib + Linsitinib; first compound 0.08 µM", "result": 0.979}, {"measurement": "relative viability", "setting": "Vismodegib + Linsitinib; first compound 0.253 µM", "result": 0.952}, {"measurement": "relative viability", "setting": "Vismodegib + Linsitinib; first compound 0.8 µM", "result": 0.994}, {"measurement": "relative viability", "setting": "Vismodegib + Linsitinib; first compound 2.53 µM", "result": 0.929}, {"measurement": "relative viability", "setting": "Vismodegib + Linsitinib; first compound 8 µM", "result": 0.991}, {"measurement": "relative viability", "setting": "Vismodegib + Bortezomib; first compound 0.08 µM", "result": 1.01}, {"measurement": "relative viability", "setting": "Vismodegib + Bortezomib; first compound 0.253 µM", "result": 0.985}, {"measurement": "relative viability", "setting": "Vismodegib + Bortezomib; first compound 0.8 µM", "result": 1.04}, {"measurement": "relative viability", "setting": "Vismodegib + Bortezomib; first compound 2.53 µM", "result": 1.01}, {"measurement": "relative viability", "setting": "Vismodegib + Bortezomib; first compound 8 µM", "result": 0.973}, {"measurement": "relative viability", "setting": "VE-821 + Lapatinib; first compound 0.08 µM", "result": 0.948}, {"measurement": "relative viability", "setting": "VE-821 + Lapatinib; first compound 0.253 µM", "result": 0.885}, {"measurement": "relative viability", "setting": "VE-821 + Lapatinib; first compound 0.8 µM", "result": 0.915}, {"measurement": "relative viability", "setting": "VE-821 + Lapatinib; first compound 2.53 µM", "result": 0.913}, {"measurement": "relative viability", "setting": "VE-821 + Lapatinib; first compound 8 µM", "result": 0.771}, {"measurement": "relative viability", "setting": "VE-821 + Navitoclax; first compound 0.08 µM", "result": 1.05}, {"measurement": "relative viability", "setting": "VE-821 + Navitoclax; first compound 0.253 µM", "result": 1.04}, {"measurement": "relative viability", "setting": "VE-821 + Navitoclax; first compound 0.8 µM", "result": 1.01}, {"measurement": "relative viability", "setting": "VE-821 + Navitoclax; first compound 2.53 µM", "result": 1}, {"measurement": "relative viability", "setting": "VE-821 + Navitoclax; first compound 8 µM", "result": 1.03}]}, {"cell line": "NCI-H1651", "values": [{"measurement": "relative viability", "setting": "Vismodegib + Linsitinib; first compound 0.08 µM", "result": 0.922}, {"measurement": "relative viability", "setting": "Vismodegib + Linsitinib; first compound 0.253 µM", "result": 0.924}, {"measurement": "relative viability", "setting": "Vismodegib + Linsitinib; first compound 0.8 µM", "result": 0.925}, {"measurement": "relative viability", "setting": "Vismodegib + Linsitinib; first compound 2.53 µM", "result": 0.931}, {"measurement": "relative viability", "setting": "Vismodegib + Linsitinib; first compound 8 µM", "result": 0.961}, {"measurement": "relative viability", "setting": "Vismodegib + Bortezomib; first compound 0.08 µM", "result": 1}, {"measurement": "relative viability", "setting": "Vismodegib + Bortezomib; first compound 0.253 µM", "result": 0.936}, {"measurement": "relative viability", "setting": "Vismodegib + Bortezomib; first compound 0.8 µM", "result": 0.953}, {"measurement": "relative viability", "setting": "Vismodegib + Bortezomib; first compound 2.53 µM", "result": 0.619}, {"measurement": "relative viability", "setting": "Vismodegib + Bortezomib; first compound 8 µM", "result": 0.882}, {"measurement": "relative viability", "setting": "VE-821 + Lapatinib; first compound 0.08 µM", "result": 0.93}, {"measurement": "relative viability", "setting": "VE-821 + Lapatinib; first compound 0.253 µM", "result": 0.815}, {"measurement": "relative viability", "setting": "VE-821 + Lapatinib; first compound 0.8 µM", "result": 0.785}, {"measurement": "relative viability", "setting": "VE-821 + Lapatinib; first compound 2.53 µM", "result": 1.04}, {"measurement": "relative viability", "setting": "VE-821 + Lapatinib; first compound 8 µM", "result": 0.74}, {"measurement": "relative viability", "setting": "VE-821 + Navitoclax; first compound 0.08 µM", "result": 0.97}, {"measurement": "relative viability", "setting": "VE-821 + Navitoclax; first compound 0.253 µM", "result": 0.941}, {"measurement": "relative viability", "setting": "VE-821 + Navitoclax; first compound 0.8 µM", "result": 0.949}, {"measurement": "relative viability", "setting": "VE-821 + Navitoclax; first compound 2.53 µM", "result": 1.02}, {"measurement": "relative viability", "setting": "VE-821 + Navitoclax; first compound 8 µM", "result": 0.864}]}]}
